# Values quoted from earlier work as cited in patent US7022698B2, “Pharmaceutical compositions containing new polymorphic forms of olanzapine and uses thereof” (U & I Pharmaceuticals, Ltd., priority 1999, dated 2006).
# Read-outs that look alike come from different tables or passages of the source.
# Key:
# [1] = system: schizophrenia and schizoaffecive and schizophreniform disorders; conditions: for Montgomery-Asberg Depression Rating Scale (MADRS) total score, baseline to endpoint decline: 6-week trial, p=0.001
# [2] = system: dopamine receptors (D1 to D5)
# [3] = system: psychotic mood disorders patients and schizophrenic patients
# [4] = system: serotonin (5-HT) receptors
# [5] = system: patients with Acute Mania; conditions: 5–20 mg/day
# [6] = system: inpatients with a diagnosis of psychotic disorders
# [7] = system: muscarinic cholinergic receptor
# bipolar type I patients = conditions: mean dose 13.8 mg/day
# [8] = system: patients with schizophrenia; conditions: 10 mg/day, in comparison with olanzapine 1 mg/day or placebo
# [9] = system: inpatients with psychotic depression
# [10] = system: patients with Alzheimer's disease (AD)
structure (smiles),measurement,setting,value
O=C(CCCN1CCC(O)(c2ccc(Cl)cc2)CC1)c1ccc(F)cc1 [haloperidol],"Montgomery-Asberg Depression Rating Scale (MADRS) total score, baseline to endpoint decline",[1],3 point
"Cc1cc2c(s1)Nc1ccccc1N=C2N1CCN(C)CC1 [olanzapine, 2-methyl-4-(4-methyl-1-piperazinyl)-10H-thieno-[2,3b][1,5] benzodiazepine]",affinity for dopaminic receptors,[2],nanomolar affinity
same,binding selectivity among dopamine receptors,[2]; D1 to D5,relatively non-selective binding
same,"Montgomery-Asberg Depression Rating Scale (MADRS) total score, baseline to endpoint decline",[1],6 point
same,reduction of the MADRS scores,"[1]; subanalysis, schizoaffective patients currently depressed, p=0.002",superior to haloperidol
same,decrease of Brief Psychiatric Rating Scale (BPRS) mania score,"[1]; subanalysis, schizoaffective patients currently manic, p=0.25",as effective as haloperidol
same,affinity for α1-adrenergic receptors,α1-adrenergic receptors,nanomolar affinity
same,inhibition of α-adrenergic receptor,α1-adrenergic receptors,potent inhibitor
same,"K Axis V subscale scores, baseline to follow-up","[3]; psychotic mood disorders group, psychological impairment, violence, and social skills subscales",statistically significant change
same,patients remaining hospitalized at follow-up,[3]; psychotic mood disorders patient group (24/32),Seventy-five
same,change on the CGI and GAF-EQ,[3]; psychotic mood disorders patients (N=32) and schizophrenic patients (N=18) who continued olanzapine,statistically significant change toward improvement
same,"K Axis V subscale scores, baseline to follow-up","[3]; schizophrenic group, only on the violence subscale",significant change in score only on the violence subscale
same,patients remaining hospitalized at follow-up,[3]; schizophrenic patients (18/18),100%
same,affinity for serotonergic receptors,[4],nanomolar affinity
same,inhibition of 5-HT receptors,"[4]; 5-HT2A, 5-HT2B, 5-HT2C, and 5-HT6 receptors",potent inhibitor
same,percentage of patients who discontinued treatment because of lack of efficacy,[5]; p=0.02 vs placebo,28.6%
same,patients with an improvement of 50% or more in Young Mania Rating Scale total score,[5]; responder analysis,48.6%
same,overall response rate,[6]; all patients,62%
same,response rate,[6]; bipolar disorder patients,83%
same,affinity for muscarinic receptors,[7],nanomolar affinity
same,inhibition of muscarinic cholinergic receptor,[7]; all five subtypes,potent inhibitor
same,HAM-D score at baseline,bipolar type I patients; 113 patients,12.2
same,YMRS score at baseline,bipolar type I patients; 113 patients,25.5
same,HAM-D score on follow-up,"bipolar type I patients; average 6.7 months, p<0.001",6.5
same,YMRS score on follow-up,"bipolar type I patients; average 6.7 months, p<0.001",7.5
same,EPS,bipolar type I patients,Few EPS were noted
same,mesolimbic and mesocortical selectivity,,mesolimbic and mesocortical selectivity
same,Hamilton Rating Scale for Depression scores,[8],significant reduction
same,response rate,[9],67%
same,"efficacy in reducing psychotic symptoms, parent study",[10]; 5-mg/day dose,most efficacious
same,"safety, parent study",[10]; 5-mg/day dose,safest
same,"efficacy in reducing psychotic symptoms, parent study","[10]; 10-mg/day dose, relative to placebo",significant efficacy
same,"expression of psychotic symptoms, parent study",[10]; 15-mg/day dose,failed to separate from the placebo group
same,"safety, parent study",[10]; 15-mg/day dose,less tolerated safety profile
same,emergence of psychotic symptoms compared to placebo,[10]; possible AD with agitation/aggression and no or minimal hallucinations and/or delusions,significantly lower emergence of psychotic symptoms
